In ChEMBL document CHEMBL4725362, “Discovery of Novel Inhibitors of a Critical Brain Enzyme Using a Homology Model and a Deep Convolutional Neural Network” (J Med Chem, 2020) one finds IC50 data, which are given here for four compounds.

This assay is described as follows: Inhibition of N-terminal MBP tagged and C-terminal 6x-His-tagged ANAT (unknown origin) expressed in Escherichia coli BL21(DE3) assessed as reduction in coenzyme A production using DTNB incubated up to 30 mins in presence of 0.1%Triton X-100. Set-up: species or system Homo sapiens.
In the case of `CCOC(=O)c1sc(NC(=O)COC(=O)Cn2c(=O)cnc3ccccc32)cc1C`, the IC50 (as a rule, the concentration at which inhibition is half-maximal) was determined as 6.1 µM.

Turning to `Nc1cc(N)nc(SCc2ncc(-c3ccc(F)cc3)o2)n1`, the IC50 turned out to be 4.82 µM.

For `Cc1c(C(=O)O)sc2[nH]c(=O)cc(CSc3nnc(C4CC4)[nH]3)c12`, the IC50 was found to be 1.25 µM.

For the compound `Cc1nnc(SCc2nnc(-c3c(-c4ccccc4)noc3C)o2)s1`, the IC50 turned out to be 2.71 µM.
